Test results from ChEMBL document CHEMBL5370585, “Exploration and Biological Evaluation of 1,3-Diamino-7H-pyrrol[3,2-f]quinazoline Derivatives as Dihydrofolate Reductase Inhibitors” (J Med Chem, 2023).
Values after ≈ are worked out from the molar mass of the structure shown. Active and inactive are the calls of the source. The calls are words filed in the database; no cut-off is given here.

Tests used:
[1] = system: Staphylococcus epidermidis; experiment: Antibacterial activity against Staphylococcus epidermidis ATCC 12228 incubated for 16 to 18 hrs by CLSI based broth dilution method; format: functional; conditions: time 16-18 hrs
HGC-27 = experiment: Cytotoxicity against human HGC-27 cells measured after 72 hrs by MTT assay; format: functional, cell-based; conditions: HGC-27, 72 h
Acinetobacter baumannii [2] = experiment: Antibacterial activity against Acinetobacter baumannii ATCC 19606 incubated for 16 to 18 hrs by CLSI based broth dilution method; format: functional; conditions: time 16-18 hrs
Escherichia coli [3] = experiment: Antibacterial activity against Escherichia coli ATCC 25922 incubated for 16 to 18 hrs by CLSI based broth dilution method; format: functional; conditions: time 16-18 hrs
HepG2 = experiment: Cytotoxicity against human HepG2 cells measured after 72 hrs by MTT assay; format: functional, cell-based; conditions: HepG2, 72 h
Enterococcus faecalis [4] = experiment: Antibacterial activity against Enterococcus faecalis ATCC 29212 incubated for 16 to 18 hrs by CLSI based broth dilution method; format: functional; conditions: time 16-18 hrs
Staphylococcus aureus [5] = experiment: Antibacterial activity against Staphylococcus aureus ATCC 29213 incubated for 16 to 18 hrs by CLSI based broth dilution method; format: functional; conditions: time 16-18 hrs
HCT-116 = experiment: Cytotoxicity against human HCT-116 cells measured after 72 hrs by MTT assay; format: functional, cell-based; conditions: HCT-116, 72 h
Staphylococcus aureus [6] = experiment: Antibacterial activity against methicillin-resistant Staphylococcus aureus ATCC 43300 incubated for 16 to 18 hrs by CLSI based broth dilution method; format: functional; conditions: time 16-18 hrs
[7] = biological target: T1, Dihydrofolate reductase (Homo sapiens) (UniProt P00374); experiment: Inhibition of human DHFR at 1 uM incubated for 10 mins in presence of NADPH by colorimetry based analysis relative to control
T1 sequence (whole entry): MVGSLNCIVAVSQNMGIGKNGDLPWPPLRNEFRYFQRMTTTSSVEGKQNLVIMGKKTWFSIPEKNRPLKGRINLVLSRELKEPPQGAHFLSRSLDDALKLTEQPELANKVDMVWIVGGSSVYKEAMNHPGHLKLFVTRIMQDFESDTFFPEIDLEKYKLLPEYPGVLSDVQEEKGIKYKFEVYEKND

MCF7 = experiment: Cytotoxicity against human MCF7 cells measured after 72 hrs by MTT assay; format: functional, cell-based; conditions: MCF7, 72 h
[8] = Metabolic stability in mouse liver microsomes assessed as hepatic clearance at 1 uM measured upto 60 mins in presence of NADPH by LC-MS/MS analysis; format: ADME, Microsome; conditions: 1 h
[9] = Metabolic stability in mouse liver microsomes assessed as intrinsic clearance at 1 uM measured upto 60 mins in presence of NADPH by LC-MS/MS analysis; format: ADME, Microsome; conditions: read-out: CLH
Escherichia coli [10] = experiment: Antibacterial activity against Escherichia coli ECO 15-1 incubated for 16 to 18 hrs by CLSI based broth dilution method; format: functional; conditions: time 16-18 hrs
Staphylococcus aureus [11] = experiment: Antibacterial activity against methicillin-resistant Staphylococcus aureus ATCC 33591 incubated for 16 to 18 hrs by CLSI based broth dilution method; format: functional; conditions: time 16-18 hrs
Staphylococcus aureus [12] = experiment: Antibacterial activity against methicillin-sensitive Staphylococcus aureus ATCC 25923 incubated for 16 to 18 hrs by CLSI based broth dilution method; format: functional; conditions: time 16-18 hrs
Acinetobacter baumannii [13] = experiment: Antibacterial activity against Acinetobacter baumannii 20-1 incubated for 16 to 18 hrs by CLSI based broth dilution method; format: functional; conditions: time 16-18 hrs
Klebsiella pneumoniae [14] = experiment: Antibacterial activity against Klebsiella pneumoniae 15-1 assessed as reduction in microbial growth incubated for 16 to 18 hrs by CLSI based broth dilution method; format: functional; conditions: time 16-18 hrs
Staphylococcus aureus [15] = experiment: Antibacterial activity against methicillin-sensitive Staphylococcus aureus 15-2 incubated for 16 to 18 hrs by CLSI based broth dilution method; format: functional; conditions: time 16-18 hrs
Staphylococcus aureus [16] = experiment: Antibacterial activity against vancomycin intermediate Staphylococcus aureus ATCC 700788 incubated for 16 to 18 hrs by CLSI based broth dilution method; format: functional; conditions: time 16-18 hrs
Pseudomonas aeruginosa = experiment: Antibacterial activity against Pseudomonas aeruginosa ATCC 27853 incubated for 16 to 18 hrs by CLSI based broth dilution method; format: functional; conditions: time 16-18 hrs
Enterococcus faecalis [17] = experiment: Antibacterial activity against Enterococcus faecalis EFA19-1 incubated for 16 to 18 hrs by CLSI based broth dilution method; format: functional; conditions: time 16-18 hrs
Acinetobacter baumannii [18] = experiment: Antibacterial activity against Acinetobacter baumannii 20-2 incubated for 16 to 18 hrs by CLSI based broth dilution method; format: functional; conditions: time 16-18 hrs
Escherichia coli [19] = experiment: Antibacterial activity against Escherichia coli ATCC 25922 incubated for 16 to 18 hrs in presence of human plasma by CLSI based broth dilution method; format: functional; conditions: time 16-18 hrs
Klebsiella pneumoniae [20] = experiment: Antibacterial activity against Klebsiella pneumoniae ATCC 700603 assessed as reduction in microbial growth incubated for 16 to 18 hrs by CLSI based broth dilution method; format: functional; conditions: time 16-18 hrs
Staphylococcus aureus [21] = experiment: Antibacterial activity against methicillin-sensitive Staphylococcus aureus ATCC 29213 incubated for 16 to 18 hrs by CLSI based broth dilution method; format: functional; conditions: time 16-18 hrs
Acinetobacter baumannii [22] = experiment: Antibacterial activity against Acinetobacter baumannii ATCC 19606 assessed as reduction in microbial growth incubated for 16 to 18 hrs by CLSI based broth dilution method; format: functional; conditions: time 16-18 hrs
Staphylococcus aureus [23] = experiment: Antibacterial activity against methicillin-sensitive Staphylococcus aureus 15-1 incubated for 16 to 18 hrs by CLSI based broth dilution method; format: functional; conditions: time 16-18 hrs
Staphylococcus aureus [24] = experiment: Antibacterial activity against Staphylococcus aureus ATCC 29213 incubated for 16 to 18 hrs in presence of human plasma by CLSI based broth dilution method; format: functional; conditions: time 16-18 hrs
Enterococcus faecalis [25] = experiment: Antibacterial activity against Enterococcus faecalis EFA19-2 incubated for 16 to 18 hrs by CLSI based broth dilution method; format: functional; conditions: time 16-18 hrs
Staphylococcus aureus [26] = experiment: Antibacterial activity against Methicillin-resistant Staphylococcus aureus ATCC 43300 infected in ip dosed ICR mouse thigh infection model assessed as reduction in bacterial growth measured after 24 hrs post-treatment; format: functional, organism-based; conditions: dose lower 7.5 mg/kg, dose upper […]
Escherichia coli [27] = experiment: Antibacterial activity against Escherichia coli ATCC BAA-2340 incubated for 16 to 18 hrs by CLSI based broth dilution method; format: functional; conditions: time 16-18 hrs
Staphylococcus aureus [28] = experiment: Antibacterial activity against methicillin-resistant Staphylococcus aureus ATCC 43300 incubated for 16 to 18 hrs in presence of human plasma by CLSI based broth dilution method; format: functional; conditions: time 16-18 hrs
Escherichia coli [29] = experiment: Antibacterial activity against Escherichia coli ATCC 25922 incubated for 16 to 18 hrs in absence of human plasma by CLSI based broth dilution method; format: functional; conditions: time 16-18 hrs
Enterococcus = experiment: Antibacterial activity against Vancomycin-resistant Enterococcus ATCC 51575 incubated for 16 to 18 hrs by CLSI based broth dilution method; format: functional; conditions: time 16-18 hrs
[30] = Toxicity in ICR mouse assessed as median lethal dose administered as single IP dose measured upto 8 days; conditions: in vivo, time < 8 day
Staphylococcus aureus [31] = experiment: Antibacterial activity against Staphylococcus aureus ATCC 29213 incubated for 16 to 18 hrs in absence of human plasma by CLSI based broth dilution method; format: functional; conditions: time 16-18 hrs
Staphylococcus aureus [32] = experiment: Antibacterial activity against methicillin-resistant Staphylococcus aureus ATCC 43300 incubated for 16 to 18 hrs in absence of human plasma by CLSI based broth dilution method; format: functional; conditions: time 16-18 hrs
Staphylococcus aureus [33] = experiment: Antibacterial activity against vancomycin intermediate Staphylococcus aureus ATCC 700699 incubated for 16 to 18 hrs by CLSI based broth dilution method; format: functional; conditions: time 16-18 hrs

Nc1nc(N)c2c(ccc3c2ccn3Cc2nc3ccccc3o2)n1
MIC [1]: 0.008 µg/mL (≈ 0.0242 µM) | IC50 (HGC-27): 69 nM | MIC (Acinetobacter baumannii [2]): 16 µg/mL (≈ 48.4 µM) | MIC (Escherichia coli [3]): 0.25 µg/mL (≈ 0.757 µM) | IC50 (HepG2): 660 nM | MIC (Enterococcus faecalis [4]): 0.25 µg/mL (≈ 0.757 µM) | MIC (Staphylococcus aureus [5]): 0.5 µg/mL (≈ 1.51 µM) | IC50 (HCT-116): 40 nM | MIC (Staphylococcus aureus [6]): 0.25 µg/mL (≈ 0.757 µM) | inhibition [7]: 16.1% | IC50 (MCF7): 970 nM

Nc1nc(N)c2c(ccc3c2cc(-c2ccccc2)n3Cc2nc3ccccc3s2)n1
MIC [1]: 64 µg/mL (≈ 151 µM) | IC50 (HGC-27): > 1000 nM | MIC (Acinetobacter baumannii [2]): > 128 µg/mL | MIC (Escherichia coli [3]): > 128 µg/mL | IC50 (HepG2): > 1000 nM | MIC (Enterococcus faecalis [4]): 32 µg/mL (≈ 75.7 µM) | MIC (Staphylococcus aureus [5]): > 128 µg/mL | IC50 (HCT-116): > 1000 nM | MIC (Staphylococcus aureus [6]): > 128 µg/mL | inhibition [7]: 17.3% | IC50 (MCF7): > 1000 nM

COc1ccc2c(c1)[C@]13CCCC[C@@H]1[C@H](C2)N(C)CC3 [DEXTROMETHORPHAN]
CLH [8]: 77 mL/min/kg | microsomal CLint at 1 µM [9]: 135 µL/min/mg

COc1cc(Cc2cnc(N)nc2N)cc(OC)c1OC [TRIMETHOPRIM]
MIC [1]: ≤ 0.004 µg/mL | MIC (Escherichia coli [10]): > 64 µg/mL | MIC (Staphylococcus aureus [11]): 1 µg/mL (≈ 3.44 µM) | MIC (Staphylococcus aureus [12]): 1 µg/mL (≈ 3.44 µM) | MIC (Acinetobacter baumannii [13]): > 64 µg/mL | MIC (Acinetobacter baumannii [2]): 16 µg/mL (≈ 55.1 µM) | MIC (Klebsiella pneumoniae [14]): 8 µg/mL | MIC (Staphylococcus aureus [15]): 0.25 µg/mL (≈ 0.861 µM) | MIC (Staphylococcus aureus [16]): 0.5 µg/mL (≈ 1.72 µM) | MIC (Pseudomonas aeruginosa): > 64 µg/mL | MIC (Enterococcus faecalis [17]): 0.25 µg/mL (≈ 0.861 µM) | MIC (Acinetobacter baumannii [18]): 16 µg/mL (≈ 55.1 µM) | MIC (Escherichia coli [3]): 0.5 µg/mL (≈ 1.72 µM) | MIC (Escherichia coli [19]): 0.5 µg/mL | MIC (Klebsiella pneumoniae [20]): 4 µg/mL | MIC (Staphylococcus aureus [21]): 1 µg/mL (≈ 3.44 µM) | MIC (Acinetobacter baumannii [22]): 16 µg/mL | MIC (Staphylococcus aureus [23]): 0.5 µg/mL (≈ 1.72 µM) | MIC (Enterococcus faecalis [4]): 0.5 µg/mL (≈ 1.72 µM) | MIC (Staphylococcus aureus [24]): 1 µg/mL | MIC (Enterococcus faecalis [25]): 0.5 µg/mL (≈ 1.72 µM) | Activity (Staphylococcus aureus [26]): Active | MIC (Escherichia coli [27]): 64 µg/mL (≈ 220 µM) | MIC (Staphylococcus aureus [28]): 0.5 µg/mL | MIC (Escherichia coli [29]): 0.5 µg/mL (≈ 1.72 µM) | MIC (Staphylococcus aureus [5]): 1 µg/mL (≈ 3.44 µM) | MIC (Enterococcus): ≤ 0.03 µg/mL | LD50 at 192 h [30]: > 800 mg/kg | MIC (Staphylococcus aureus [31]): 1 µg/mL (≈ 3.44 µM) | MIC (Staphylococcus aureus [6]): 0.5 µg/mL (≈ 1.72 µM) | MIC (Staphylococcus aureus [32]): 0.5 µg/mL (≈ 1.72 µM) | MIC (Staphylococcus aureus [33]): 1 µg/mL (≈ 3.44 µM)
